# Laboratory results published in patent US20060009520A1, “Retinoid-based methods for altering macrophage cholesterol” (priority 2004, published 2006).
# What was measured:
# [1] = system: SREBP-1c, FAS, ABCA1, Cyp26 mRNA in liver; assay: Gene expression in mouse liver after intraperitoneal injection; format: in vivo; settings: mice, intraperitoneal 1 or 10 mg/kg, 24 h
# Description: (A) RAR regulation of ABCA1 and SREBP-1c expression in mouse peritoneal macrophages. […] ABCA1 and SREBP-1c mRNA levels were determined by quantitative real-time reverse transcription-PCR and standardized against β-actin mRNA levels. The results are expressed as mean±the SEM (n=4 and 6). *, P<0.05; **, P<0.01 (compared to control). […] After 24 h, the mice were anesthetized, the livers were perfused, and the square lobes were removed for isolation of RNA. […] The results are expressed as mean±the SEM (n=5).
# Total RNA was isolated from mouse peritoneal macrophages or ˜50 mg of mouse liver tissue by using the RNeasy Mini kit (Qiagen, Valencia, Calif.) or RNA-Bee reagent (Tel-Test, Inc., Friendswood, Tex.), respectively, according to the manufacturer's protocol. Real-time quantitative PCR assays were performed by using the Mx4000 Quantitative PCR System (Stratagene, La Jolla, Calif.). Briefly, 5 μg of total RNA was treated with RNase-free DNase I (Ambion, Austin, Tex.), and first-strand cDNA was synthesized with oligo(dT)12-18 by using a Superscript II RNase H^− reverse transcriptase reagent kit (Invitrogen) according to the manufacturer's protocol. For quantification of mouse ABCA1, ABCG1, SREBP-1c, LXRα, ApoE, and fatty acid synthase (FAS) mRNA levels, each amplification mixture contained 62.5 ng of cDNA, appropriate concentrations of forward and reverse primers and of dual-labeled fluorogenic probe (Biosearch Technologies, Novato, Calif.), and 12.5 μl of TaqMan Universal PCR master mix (Applied Biosystems, Foster City, Calif.). PCR thermocycling parameters were 50° C. for 2 min, 95° C. for 10 min, and 45 cycles of 95° C. for 15 s and 60° C. for 1 min. All samples were analyzed for β-actin expression in the same run. Quantitative expression values were extrapolated from standard curves for the gene of interest with 10-fold dilutions of cDNA (in triplicate). Each sample was normalized to β-actin, triplicates were averaged, and relative mRNA levels were determined. […]
# For quantification of mouse Cyp26 mRNA levels, each amplification mixture (25 μ) contained 62.5 ng of cDNA, 100 nM concentrations of reverse and forward primers, and 2.5 μl of 10× SYBR Green PCR master mix (Perkin-Elmer Life Sciences, Boston, Mass.). Quantitative expression values were extrapolated from standard curves for Cyp26 expression with 10-fold dilutions of cDNA (in triplicate). Each sample was normalized to β-actin that was deduced from TaqMan assays, triplicate results were averaged, and relative Cyp26 mRNA levels were determined. […]
# FXR = target: T1, FXR (Mus musculus, UniProt Q60641); settings: cited from earlier work
# T1 sequence (Q60641 1-488): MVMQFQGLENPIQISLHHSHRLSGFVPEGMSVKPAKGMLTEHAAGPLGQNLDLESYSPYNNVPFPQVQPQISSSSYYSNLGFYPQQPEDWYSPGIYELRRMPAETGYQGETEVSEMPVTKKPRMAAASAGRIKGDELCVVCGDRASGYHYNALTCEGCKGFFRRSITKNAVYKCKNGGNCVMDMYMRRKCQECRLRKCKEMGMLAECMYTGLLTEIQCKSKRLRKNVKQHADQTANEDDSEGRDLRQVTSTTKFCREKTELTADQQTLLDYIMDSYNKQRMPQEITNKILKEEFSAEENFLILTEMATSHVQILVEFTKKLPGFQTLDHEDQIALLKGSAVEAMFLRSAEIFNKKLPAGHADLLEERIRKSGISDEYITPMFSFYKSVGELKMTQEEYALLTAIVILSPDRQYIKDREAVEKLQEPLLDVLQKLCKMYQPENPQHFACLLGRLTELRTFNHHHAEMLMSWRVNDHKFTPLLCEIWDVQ
compound,measurement,setting,value
"C/C(=C\c1ccc(C(=O)O)cc1)c1ccc2c(c1)C(C)(C)CCC2(C)C [TTNPB, 4-[E-2-5,6.7.8-tetrahydro-5,5,8,8-tetramethyl-2-naphthalenyl-l-propenyl]benzoic acid]",Cyp26 mRNA in liver,[1],markedly induced
same,FAS gene expression in liver,[1],no response
same,hepatic ABCA1 mRNA,[1],not induced
same,hepatic SREBP-1c mRNA,[1],repressed
same,FXR activation,FXR,activates FXR at relatively high concentrations
